According to patent publication US20260183302A1, “PDK1 REGULATORY COMPOUND AND COMPOSITION CONTAINING THE SAME” (PROVIBIO CO., LTD., priority 2024, published 2026):

Legend:
[1] = tested on: Human B Lymphocyte cell line, SU-DHL-8; assay: Relative cell viability, SU-DHL-8 (CCK-8); format: cell-based; conditions: 48 hours, untreated (DMSO) = 100%
Protocol: Human-derived B lymphoma cell line SU-DHL-8 (Cat. #CRL-2961) purchased from ATCC was cultured in RPMI-1640 medium containing 10% FBS, 100 U/mL penicillin, and 100 μg/mL streptomycin.
The cell culture medium was then harvested, centrifuged at 1,300 rpm for 5 minutes, and the supernatant was removed. The cells were resuspended in the same medium and dispensed into a 96-well plate (Costar 96-well cell culture plate, Corning) at 90 μL per well, resulting in the conditions specified in Table 5.
Then, 10 μL of CCK-8 was added to each well, and the plates were incubated again at 37° C. in a 5% CO2 incubator for 4 hours.
In other words, when the survival rate of untreated cells (DMSO) is set at 100%, the relative cell survival rate in each group treated with the drug at different concentrations is indicated.

[2] = tested on: T cells isolated from mouse spleens; assay: T cell proliferation inhibition (CFSE flow cytometry, anti-CD3/anti-CD28 stimulation); format: cell-based, C57BL/6 mice; conditions: three days
Protocol: To verify the T cell proliferation inhibitory effect of the compounds according to the present invention, the following experiment was performed based on flow cytometry analysis using carboxyfluorescein diacetate succinimidyl ester (CFSE), a fluorescent dye that binds to intracellular molecules via covalent bonds.
Spleens were extracted from 7-week-old C57BL/6 mice, ground, and then separated into single cells using a strainer (40 μm pore size, SPL). Red blood cells were removed using ACK (Ammonium-Chloride-Potassium) lysis buffer to isolate white blood cells.
Finally, using a MACS Magnetic Stand and LS column, T cells were isolated from the spleen.
The T cells isolated from the spleen were resuspended in 1 mL of free medium (RPMI-1640+200 U/mL penicillin+200 μg/mL streptomycin), and 0.3 μL of CFSE (10 mM) was added. The mixture was incubated at 37° C. for 5 minutes.
Free medium (10 mL) was added to stop the reaction, and the cells were centrifuged to obtain the cell pellet.
RPMI 1640 medium containing 10% FBS, 100 U/mL penicillin, 100 μg/mL streptomycin, and resuspended the cells. The cells were then seeded into a 96-well plate at a density of 2× 10^5 cells per well and activated with CD3 and CD28 antibodies (0.5 μg/mL each) to activate T cells.
The compound diluted in DMSO was added at concentrations of 10 nM, 100 nM, 1 μM, 10 μM, 30 μM, and 50 μM, with three wells per concentration, and cultured at 37° C. and 5% CO2 for three days. The cells were then analyzed using a FACS Canto instrument.
The proliferation inhibition rate (%) was calculated using the following formula: […]

Row | Structure (SMILES) | Relative cell viability (%) ([1]; SU-DHL-8, 1 μM) | Relative cell viability (%) ([1]; SU-DHL-8, 10 μM) | Relative cell viability (%) ([1]; SU-DHL-8, 30 μM) | Proliferation inhibition rate (%) ([2]; concentration 100 nM) | Proliferation inhibition rate (%) ([2]; concentration 1 μM) | Proliferation inhibition rate (%) ([2]; concentration 10 μM) | Proliferation inhibition rate (%) ([2]; concentration 30 μM) | Proliferation inhibition rate (%) ([2]; concentration 50 μM) | Relative cell viability (%) ([1]; SU-DHL-8, 50 μM) | Proliferation inhibition rate (%) ([2]; concentration 10 nM) | Relative cell viability (%) ([1]; SU-DHL-8, 1 μM, listed as PBK-2024-024, 1 µM) | Relative cell viability (%) ([1]; SU-DHL-8, 10 μM, listed as PBK-2024-024, 10 µM) | Relative cell viability (%) ([1]; SU-DHL-8, 30 μM, listed as PBK-2024-024, 30 µM) | Relative cell viability (%) ([1]; SU-DHL-8, 50 μM, listed as PBK-2024-024, 50 µM) | Proliferation inhibition rate (%) ([2]; concentration 10 nM, listed as PBK-2024-024, 0.01 µM)
1 | CC1CN(CCCCCCCCCCCCNC(=O)c2cccnc2N)CC(C)O1 (stereo not drawn) [Compound 21, 2-Amino-N-(12-(2,6-dimethylmorpholino)dodecyl) nicotinamide] | 9.64% | 7.68% | 3.70% | 100.00% | 100.00% | 100.00% | 100.00% | 100.00% |  |  |  |  |  |  | 
2 | CC1(C)CCN(CCCCCCCCCCCCNC(=O)c2cccnc2N)C1 [Compound 22, 2-Amino-N-(12-(3,3-dimethylpyrrolidin-1-yl)dodecyl) nicotinamide] | 6.46% | 2.85% | 2.45% | 100.00% | 100.00% | 100.00% | 100.00% | 100.00% | 1.67% | −0.80% |  |  |  |  | 
3 | CC1CCN(CCCCCCCCCCCCNC(=O)c2cccnc2N)C1 (stereo not drawn) [Compound 24, 2-Amino-N-(12-(3-methylpyrrolidin-1-yl)dodecyl) nicotinamide] | 8.38% | 1.65% | 0.62% | 100.00% | 100.00% | 100.00% | 100.00% | 100.00% |  |  |  |  |  |  | 
4 | Nc1ncccc1C(=O)NCCCCCCCCCCCCN1CCS(=O)(=O)CC1 [Compound 25, 2-Amino-N-(12-(1,1-dioxidothiomorpholino)dodecyl) nicotinamide] | 9.73% | 1.26% | 0.11% |  | 100.00% | 100.00% | 100.00% | 100.00% | 0.95% |  |  |  |  |  | 
5 | Nc1ncccc1C(=O)NCCCCCCCCCCCCN1CCC(F)C1 (stereo not drawn) [Compound 26, 2-Amino-N-(12-(3-fluoropyrrolidin-1-yl)dodecyl) nicotinamide] | 1.70% | 1.04% | 0.05% | 100.00% | 100.00% | 100.00% | 100.00% | 100.00% |  |  |  |  |  |  | 
6 | COC1CCN(CCCCCCCCCCCCNC(=O)c2cccnc2N)C1 (stereo not drawn) [Compound 32, 2-Amino-N-(12-(3-methoxypyrrolidin-1-yl)dodecyl) nicotinamide] |  |  |  |  |  |  |  |  |  |  | 3.48% | 3.01% | 1.97% | 1.45% | 0.29%
7 | CC1CNCCN1CCCCCCCCCCCCNC(=O)c1cccnc1N (stereo not drawn) [Compound 35, 2-Amino-N-(12-(2-methylpiperazin-1-yl)dodecyl) nicotinamide] | 1.18% | 0.64% | 0.42% | 100.00% | 100.00% | 100.00% | 100.00% | 100.00% |  |  |  |  |  |  | 
8 | C[C@H]1CNCCN1CCCCCCCCCCCCNC(=O)c1cccnc1N.Cl [Compound 37, (S)-2-Amino-N-(12-(2-methylpiperazin-1-yl)dodecyl) nicotinamide hydrochloride] | 6.38% | 4.45% | 3.17% |  | 100.00% | 100.00% | 100.00% | 100.00% | 2.32% |  |  |  |  |  | 
9 | Nc1ncccc1C(=O)NCCCCCCCCCCCCN1CCC(Oc2ccncc2)CC1 [Compound 38, 2-Amino-N-(12-(4-(pyridin-4-yloxy)piperidin-1-yl)dodecyl) nicotinamide] | 4.16% | 3.30% | 1.79% | 100.00% | 100.00% | 100.00% | 100.00% | 100.00% | 1.42% |  |  |  |  |  | 
10 | CC1CCCN(CCCCCCCCCCCCNC(=O)c2cccnc2N)CC1 (stereo not drawn) [Compound 39, 2-Amino-N-(12-(4-methylazepan-1-yl)dodecyl) nicotinamide] | 11.48% | 8.41% | 6.24% | 100.00% | 100.00% | 100.00% | 100.00% | 100.00% | 4.27% |  |  |  |  |  | 
11 | CC1CN(C)C(CCCCCCCCCCCCNc2ccc3cncnc3n2)N1 (stereo not drawn) [Compound 43] | 22.61% | 11.93% | 2.34% | 100.00% | 100.00% | 100.00% | 100.00% | 100.00% | 1.58% |  |  |  |  |  | 
12 | Cl.Nc1ncccc1C(=O)NCCCCCCCCCCCCN1CC[C@H](N)C1 [Compound 50, (S)-2-Amino-N-(12-(3-aminopyrrolidin-1-yl)dodecyl) nicotinamide hydrochloride] | 9.20% | 8.18% | 6.18% | 100.00% | 100.00% | 100.00% | 100.00% | 100.00% | 4.31% |  |  |  |  |  | 
13 | CN1CCN(CCCCCCCCCCCCNC(=O)c2ccc(F)cn2)CC1 [Compound 203, 5-Fluoro-N-(12-(4-methylpiperazin-1-yl)dodecyl) picolinamide] |  |  |  | 1.16% | 6.80% | 100.00% | 100.00% | 100.00% |  | −4.49% |  |  |  |  | 
14 | COc1ccc(C(=O)NCCCCCCCCCCCCN2CCN(C)CC2)nc1 [Compound 204, 5-methoxy-N-(12-(4-methylpiperazin-1-yl)dodecyl) picolinamide] |  |  |  | −0.14% | 12.30% | 95.01% | 100.00% | 100.00% |  | −2.60% |  |  |  |  | 
15 | CN1CCN(CCCCCCCCCCCCNC(=O)c2ccncc2N)CC1 [Compound 209, 3-Amino-N-(12-(4-methylpiperazin-1-yl)dodecyl) isonicotinamide] |  |  |  | 1.59% | 18.81% | 84.52% | 100.00% | 100.00% |  | −1.45% |  |  |  |  | 
